Read-outs that look alike come from different tables or passages of the source.
What was measured:
[1] = test system: bovine cerebral cortex capillary endothelial cells; assay: Inhibition of rb-FGF-stimulated capillary endothelial cell proliferation (in vitro test); assay type: cell-based; conditions: 1 ng/ml rb-FGF, cell counting 5 days after addition of test product, read-out: IC50 (50% inhibition of cell proliferation)
Procedure: A nutrient medium (Dulbecco's modified Eagle medium-DMEM), supplemented with fetal calf serum (concentration: 5% V/V) and containing glutamine (4 mM), penicillin (100 U/ml) and streptomycin sulphate (100 μg/ml), is introduced into 1-ml wells and innoculated with bovine cerebral cortex capillary endothelial cells (20×10^3 cells/ml), isolated and cultured as described by D. Gospodarowicz et al. in J. Cell. Physiol. 127, p. 121-136 (1986).
As soon as cell adhesion has taken place, 1 ng/ml of recombinant bovine basic fibroblast growth factor (rb-FGF), marketed by Amersham, a known factor for the stimulation of angiogenesis in vivo, is added, followed by the test solutions.
Cell counting is performed 5 days after the addition of 20 μl of a solution of the test products in dimethyl sulphoxide such that their final concentration in the medium is between 10^-4 and 10^-8 M; the control wells receive 20 μl of solvent.
From the results obtained for several concentrations of each of the test products, the concentration at which the latter produce a 50% inhibition of cell proliferation is calculated in a conventional manner.

[2] = test system: angiogenic response induced by fibrin gels; conditions: rat, treatment begun after 14 days
Procedure: (§1) Perforated Plexiglas chambers containing a fibrin gel, obtained by polymerisation of rat fibrinogen in the presence of thrombin, are implanted subcutaneously in rats.
(§2) The inhibition of the angiogenic response was evaluated by:
(§3) (i) the height and diameter of the granulation outgrowths,
(§4) (ii) the number of newly-formed vessels per outgrowth and their localisation,
(§5) (iii) the quality of the granulation tissue.

[3] = test system: angiogenic response induced by fibrin gels; conditions: rat
Procedure: as §1
The test products, suspended in absolute alcohol and 5% gum arabic (10 ml/kg), are administered orally to the rats at doses of 5 and 25 mg/kg/day for the compounds of Examples 3 and 4, for 5 days before implantation and up to the time of removal of the chambers. After 14 days, a granulation outgrowth is formed, and the chambers are removed in order to observe the height of the granulation outgrowth anchored in the matrix and the quantity of newly-formed vessels which have appeared.
as §2, §3, §4, §5

platelet aggregation = conditions: described in EP-A-0 281,459; cited from earlier work
[4] = Bos taurus, Endothelial cell, 120 h

SMILES	IC50 [1, 4]	IC50 [1]	effectiveness on height of granulation outgrowths ([3]; 5 mg/kg/day oral)	inhibition of height of the granulation outgrowths ([3]; 25 mg/kg/day oral)	lowering of number of newly-formed vessels per outgrowth ([3]; 25 mg/kg/day oral)	also measured
CCOC(=O)C(c1ccccc1Cl)N1CCc2sccc2C1 (centres unmarked) [Compound 5]	70 nM					
COC(=O)C(c1ccccc1Cl)N1CCc2sccc2C1 (single isomer, unassigned) [Compound 3]		0.8 nM	remains effective	50%	90%	activity on regression of angiogenesis ([2]; 5 mg/kg/day): still very active; activity on regression of angiogenesis (comparison with compound No. 4) ([2]; 25 mg/kg/day): markedly more active than its homologue, the compound No. 4; angiogenesis-inhibiting activity ([3]; 5 mg/kg/day oral): still very active; inhibition of height of the granulation outgrowths ([3]; 5 mg/kg/day oral): 50%; lowering of number of newly-formed vessels per outgrowth ([3]; 5 mg/kg/day oral): 50%; angiogenesis-inhibiting activity (comparison with compound No. 4) ([3]; 25 mg/kg/day oral): markedly more active than its homologue, the compound No. 4; quality of the granulation tissue ([3]; oral, dose not given): more loose-textured and disorganised
COC(=O)C(c1ccccc1Cl)N1CCc2sccc2C1 (centres unmarked) [Compound 2]	2.3 nM					
COC(=O)C(c1ccccc1Cl)N1CCc2sccc2C1 (single isomer, unassigned) [Compound 4, laevorotatory isomer of methyl alpha-(4,5,6,7-tetrahydrothieno[3,2-c]pyrid-5-yl)-alpha-(2-chlorophenyl)acetate]		3.7 nM	in contrast to the latter compound	30%	60%	platelet aggregation inhibition (platelet aggregation): inactive
O=C(O)C(c1ccccc1Cl)N1CCc2sccc2C1 (single isomer, unassigned) [Compound 1]	600 nM					
CCCCOC(=O)C(c1ccccc1Cl)N1CCc2sccc2C1 (centres unmarked) [Compound 6]	220 nM					
